According to patent US20230051263A1, “DEVICE FOR RAPID AND QU[…] OF DRUGS OF ABUSE IN SWEAT” (THE REGENTS OF THE UNIVERSITY OF MICHIGAN, priority 2020, published 2023):

Experiments:
Assay type in all cases: binding
[1] = tested on: methadone antibody; assay: Cross-reactivity of methadone sensor (capillary competitive chemiluminescent ELISA); conditions: target analyte methadone; challenging analyte in sweat 1.6-10,000 ng/mL vs methadone-HRP 2000x; IC50 ratio Eq. (1)
Source text: (§1) In order to develop a sensor array that can quantify the presence of multiple analytes simultaneously, it is important to examine their cross-reactivity. Using the methadone as an example, methadone was the target analyte and channels of the capillary sensor were first coated with methadone antibody. After blocking, serial concentrations of the challenging analytes, METH, amphetamine, or THC, were individually mixed with methadone-HRP and withdrawn into the capillaries. The challenging analyte molecules (e.g., METH) competed with methadone-HRP for the methadone antibody coated on the capillary surface. Cross-reactivity is calculated as follows: […]
(§2) In order to perform multiplexed detection of drugs in sweat, first the cross-reactivity of the capillary-based sensors is examined. The capillary coated with the antibody intended for detecting one particular drug (i.e., target analyte) is challenged with various concentrations of the other three drugs (i.e., challenging analytes). Here, the concentrations of 10,000 ng/mL, 5,000 ng/mL, 400 ng/mL, 80 ng/mL, and 1.6 ng/mL for the challenging analytes in sweat are used. […] One exception is the 3.1% cross-reactivity of METH sensor to amphetamine, which is due to the structural similarities between METH and amphetamine.
(§3) The final concentration of competing drug conjugates was 2000×, 4000×, 15000×, and 4000× for methadone-HRP, METH-HRP, amphetamine-HRP, and THC-HRP, respectively, in corresponding sensors.

[2] = tested on: methamphetamine antibody; assay: Cross-reactivity of METH sensor (capillary competitive chemiluminescent ELISA); conditions: target analyte METH, challenging analyte in sweat 1.6-10,000 ng/mL vs METH-HRP 4000x, IC50 ratio Eq. (1)
Source text: as §1, §2, §3

[3] = tested on: tetrahydrocannabinol antibody; assay: Cross-reactivity of THC sensor (capillary competitive chemiluminescent ELISA); conditions: target analyte THC; challenging analyte in sweat 1.6-10,000 ng/mL vs THC-HRP 4000x; IC50 ratio Eq. (1)
Source text: as §1, §2, §3

[4] = tested on: corresponding antibody coated on capillary inner surface; assay: Detection of individual drugs in artificial sweat, inhibition curves (capillary competitive chemiluminescent ELISA); conditions: y = a + b/(1+(x/x0)^p), x in ng/mL; used as calibration curve
[5] = tested on: amphetamine antibody; assay: Cross-reactivity of amphetamine sensor (capillary competitive chemiluminescent ELISA); conditions: target analyte amphetamine; challenging analyte in sweat 1.6-10,000 ng/mL vs amphetamine-HRP 15000x; IC50 ratio Eq. (1)
Source text: as §1, §2, §3

| SMILES | Cross-reactivity (100%) [1] [%] | Cross-reactivity (100%) [2] [%] | Cross-reactivity (100%) ([2]; listed as amphetamine) [%] | Cross-reactivity (100%) [3] [%] | midpoint parameter of logistic fit of inhibition curve B/B0 (%) [4] [ng/mL] | Cross-reactivity (100%) [5] [%] |
| --- | --- | --- | --- | --- | --- | --- |
| CC(N)Cc1ccccc1 (stereo not shown) [Amphetamine, amphetamine] | <0.001 | 3.1 | 3.1 | <0.4 | 1473.04 | – |
| CN[C@@H](C)Cc1ccccc1 [METH, methamphetamine] | <0.001 | – | – | <0.4 | 7.63 | 0.07 |
| CCC(=O)C(CC(C)N(C)C)(c1ccccc1)c1ccccc1 (stereo not shown) [Methadone, methadone] | – | <0.04 | – | <0.4 | – | <0.02 |
| CCCCCc1cc(O)c2c(c1)OC(C)(C)[C@@H]1CCC(C)=C[C@@H]21 [THC, tetrahydrocannabinol] | <0.001 | <0.04 | – | – | 5.95 | <0.02 |
